Consider 24 molecules from US20210246115A1 (Bioimics AB, priority 2017, published 2021).

In brackets after ≈: the same amount, converted by molar mass. Structures can show the parent of a compound that is named as a salt. Bounds are passed on as bounds.

Test [1] relates to E. coli RNase P RNA, M1 RNA. The test is described as follows: Inhibition of bacterial RNase P activity, IC50 determination (cleavage of pATSerUG by M1 RNA). Format: biochemical. The following applies: NI: No inhibition.
Test [2] deals with Escherichia coli (ATCC25922). The test is described as follows: MIC, broth microdilution (CLSI), Escherichia coli. The following applies: Escherichia coli, ATCC25922, read-out: E. coli ATCC 25922 MIC, Table XIII. Background: Dilution methods test growth across graded concentrations, often in twofold steps.
The subject of test [3] is Staphylococcus aureus (ATCC25923). Nature of the test: MIC, broth microdilution (CLSI), Staphylococcus aureus ATCC25923. The following applies: Staphylococcus aureus, ATCC25923, read-out: S. aureus ATCC 25923 MIC.
Description: Initial minimal inhibitory concentration (MIC) tests were made on two bacterial strains: • Escherichia coli (ATCC25922) • Staphylococcus aureus (ATCC25923).
MIC values were determined using the standard broth microdilution procedure based on the guidelines by the Clinical and Laboratory Standards Institute (CLSI). Briefly, the compounds were dissolved in DMSO to 10 mM. They were diluted in cation-adjusted Mueller-Hinton broth (CAMHB) to four times the highest concentration tested. A serial two-fold dilution in CAMHB was done in microdilution plates. The inoculum of bacterial strain to be tested was prepared by making a suspension of colonies from an 18 to 24 hours old plate in CAMHB. The inoculum was diluted so that, after inoculation, each well contained approximately 5×10^5 CFU/mL. To a volume of 50 μl compound in CA 3 an equal volume of inoculum was added. The tray was sealed in a plastic bag and incubated at 35° C. for 16 to 20 hours. To aid in the detection of growth the dye resazurin was added to a final concentration 0.001% and incubated at room temperature for 1 h. Reduction of resazurin, and therefore bacterial growth, was seen as a change from blue to pink.

A word on the IC50: it is the concentration at which inhibition is half-maximal. A low value points to higher potency. Usually MIC stands for the lowest concentration that inhibits growth of the organism. For the molecule `N[C@H]1CC[C@H](NC(=O)C2CCN(Cc3cn(CC4CCCCC4)c4ccc(Br)cc34)CC2)CC1` [Compound 272, N-((1R,4R)-4-aminocyclohexyl)-1-((5-bromo-1-(cyclohexylmethyl)-1H-indol-3-yl)methyl)piperidine-4-carboxamide], the midpoint of inhibition in test [1], the IC50, lay at 121 µM. For the same molecule, the MIC in test [2] amounted to 68 µg/mL (≈ 128 µM); in test [3], 34 µg/mL (≈ 64.2 µM).

Regarding `Cc1cccc(C(CC(=O)NCCN(C)C)c2cn(CC3CCCCC3)c3ccccc23)c1.Cl` (stereo not drawn) [Compound 103, 3-(1-(cyclohexylmethyl)-1H-indol-3-yl)-N-(2-(dimethylamino)ethyl)-3-(m-tolyl)propanamide hydrochloride salt], in test [1], half-maximal inhibition (IC50) required 200 µM. Also, the MIC in test [2] amounted to 128 µg/mL; in test [3], 16 µg/mL.

Turning to `Cc1cccc(C(CC(=O)NC2CCNCC2)c2cn(CC3CCOCC3)c3ccc(Br)cc23)c1.Cl` (stereo not drawn) [Compound 285, 3-(5-bromo-1-((tetrahydro-2H-pyran-4-yl)methyl)-1H-indol-3-yl)-N-(piperidin-4-yl)-3-(m-tolyl) propanamide hydrochloride salt], in test [1], the IC50 is 74 µM. Besides, the figures for the MIC in test [2] and in test [3] were 147 µg/mL and 37 µg/mL, respectively.

In turn, `CC(C)c1cccc(C(CC(=O)N[C@H]2CC[C@H](N)CC2)c2cn(CC3CCCCC3)c3ccccc23)c1.Cl` (stereo partly drawn) [Compound 198, N-((1R,4R)-4-aminocyclohexyl)-3-(1-(cyclohexylmethyl)-1H-indol-3-yl)-3-(3-isopropylphenyl) propanamide hydrochloride salt] had an IC50 in test [1] of 12.7 µM. For the same molecule, the values for the MIC in test [2] and in test [3] were greater than 512 µg/mL and 17 µg/mL, respectively.

As to `Cc1cccc(C(CC(=O)NCC2CCC(N)CC2)c2cn(CC3CCCCC3)c3ccc(Br)cc23)c1.Cl` [Compound 214, N-(((1R,4R)-4-aminocyclohexyl)methyl)-3-(5-bromo-1-(cyclohexylmethyl)-1H-indol-3-yl)-3-(m-tolyl)propanamide hydrochloride salt], in test [1], the midpoint of inhibition, the IC50, lay at 13 µM. Moreover, the results for the MIC in test [2] and in test [3] were greater than 512 µg/mL and 10 µg/mL, respectively.

In the case of `Cc1cccc(C(CC(=O)N[C@H]2CC[C@H](N)CC2)c2cn(CCC3CCCCC3)c3ccccc23)c1.Cl` (stereo partly drawn) [Compound 113, N-((1R,4R)-4-aminocyclohexyl)-3-(1-(2-cyclohexylethyl)-1H-indol-3-yl)-3-(m-tolyl)propanamide hydrochloride salt], the IC50 in test [1] was 14 µM. In addition, the MIC worked out at 512 µg/mL in test [2] and 32 µg/mL in test [3].

`Cl.N[C@H]1CC[C@H](NCCC(c2cn(CC3CCCCC3)c3ccccc23)C2CCCCC2)CC1` (stereo partly drawn) [Compound 204, (1rR4R)-N1-(3-cyclohexyl-3-(1-(cyclohexylmethyl)-1H-indol-3-yl)propyl) cyclohexane-1,4-diamine hydrochloride salt] had an IC50 in test [1] of 50 µM. Moreover, the MIC was found to be 4 µg/mL in test [2] and 2 µg/mL in test [3].

As for `Cc1cccc(C(CC(=O)NC2CCC(N)CC2)c2cn(CC3CCCCC3)c3ccc(-c4ccccc4Cl)cc23)c1.Cl` [Compound 224, N-((1S,4S)-4-aminocyclohexyl)-3-(5-(2-chlorophenyl)-1-(cyclohexylmethyl)-1H-indol-3-yl)-3-(m-tolyl)propanamide hydrochloride salt], the IC50 in test [1] came to 2.9 µM. Besides, the MIC came to 82 µg/mL in test [2] and 5 µg/mL in test [3].

For the molecule `Cc1cccc(C(CC(=O)NC2CCC(C(=O)NO)CC2)c2cn(CC3CCCCC3)c3ccccc23)c1` [Compound 247, (1S,4S)-4-(3-(1-(cyclohexylmethyl)-1H-indol-3-yl)-3-(m-tolyl)propanamido)-N-hydroxycyclohexane-1-carboxamide hydrochloride salt], the “RNase P Inhibition IC50” value in test [1] was “Ni”. The MIC in test [2] and in test [3] was greater than 512 µg/mL each time.

For the molecule `Cl.N[C@H]1CC[C@H](NC(=O)CCc2cn(CC3CCCCC3)c3ccccc23)CC1` [Compound 116, N-((1r,4r)-4-aminocyclohexyl)-3-(1-(cyclohexylmethyl)-1H-indol-3-yl)propanamide hydrochloride salt], the IC50 in test [1] was 158 µM. In addition, the MIC in test [2] and in test [3] was 128 µg/mL in each case.

As to `Cc1cccc(C(CC(=O)N2CCC(N)CC2)c2cn(CC3CCCCC3)c3ccccc23)c1.Cl` (stereo not drawn) [Compound 179, 1-(4-aminopiperidin-1-yl)-3-(1-(cyclohexylmethyl)-1H-indol-3-yl)-3-(m-tolyl)propan-1-one hydrochloride salt], in test [1], the IC50 was 12 µM. The MIC turned out to be 63 µg/mL in test [2] and 8 µg/mL in test [3].

In turn, `Cc1cccc(C(CC(=O)NC2CCC(N)CC2)c2cn(CC3CCCCC3)c3ccc(-c4ccncc4)cc23)c1` (stereo not drawn) [Compound 188, N-(4-aminocyclohexyl)-3-(1-(cyclohexylmethyl)-5-(pyridin-4-yl)-1H-indol-3-yl)-3-(m-tolyl) propanamide hydrochloride salt] gave a half-inhibitory concentration (IC50) in test [1] of 5.8 µM. The results for the MIC in test [2] and in test [3] were greater than 512 µg/mL and 5 µg/mL, respectively.

`COc1cccc(C(CC(=O)NCCC2CCNCC2)c2cn(Cc3ccccc3)c3ccccc23)c1.Cl` (stereo not drawn) [Compound 68, 3-(1-benzyl-1H-indol-3-yl)-3-(3-methoxyphenyl)-N-(2-(piperidin-4-yl)ethyl)propanamide hydrochloride salt] had a half-inhibitory concentration (IC50) in test [1] of 201 µM. Also, the figures for the MIC in test [2] and in test [3] were greater than 512 µg/mL and 68 µg/mL, respectively.

In test [1], `Cc1cccc(C(CCNC[C@H]2CC[C@H](CN)CC2)c2cn(CC3CCCCC3)c3ccccc23)c1` (stereo partly drawn) [Compound 177, N-(((1R,4R)-4-(aminomethyl)cyclohexyl)methyl)-3-(1-(cyclohexylmethyl)-1H-indol-3-yl)-3-(m-tolyl)propan-1-amine hydrochloride salt] came in with an IC50 of 15 µM. Further, the minimum inhibitory concentration (MIC) was 18 µg/mL in test [2] and 9 µg/mL in test [3].

Consider `Cc1cccc(C(CC(=O)N2CCC(CCN)CC2)c2cn(CC3CCCCC3)c3ccccc23)c1.Cl` (stereo not drawn) [Compound 181, 1-(4-(2-aminoethyl)piperidin-1-yl)-3-(1-(cyclohexylmethyl)-1H-indol-3-yl)-3-(m-tolyl)propan-1-one hydrochloride salt], for which the IC50 in test [1] turned out to be 11 µM. Also, the values for the minimal inhibitory concentration (MIC) in test [2] and in test [3] were 134 µg/mL and 17 µg/mL, respectively.

`Cc1cccc(C(CC(=O)N[C@H]2CC[C@H](N)CC2)c2cn(CC3CCCCC3)c3ccc(-c4ccccc4)cc23)c1.Cl` (stereo partly drawn) [Compound 153, N-((1R,4R)-4-aminocyclohexyl)-3-(1-(cyclohexylmethyl)-5-phenyl-1H-indol-3-yl)-3-(m-tolyl)propanamide hydrochloride salt] had an IC50 in test [1] of 41 µM. Besides, the figures for the minimal inhibitory concentration (MIC) in test [2] and in test [3] were greater than 512 µg/mL and 64 µg/mL, respectively.

In test [1], `Cc1cccc(C(CC(=O)NC2CCNCC2)c2cn(Cc3ccccc3)c3ncccc23)c1.Cl` (stereo not drawn) [Compound 70, 3-(1-benzyl-1H-pyrrolo[2,3-b]pyridin-3-yl)-N-(piperidin-4-yl)-3-(m-tolyl)propanamide hydrochloride salt] had an IC50 of 1090 µM. The MIC in test [2] was greater than 512 µg/mL; in test [3], 250 µg/mL.

In test [1], `Cc1ccccc1C(CC(=O)NC1CCC(N)CC1)c1cn(CC2CCCCC2)c2ccccc12.Cl` [Compound 149, N-((1S,4S)-4-aminocyclohexyl)-3-(1-(cyclohexylmethyl)-1H-indol-3-yl)-3-(o-tolyl)propanamide hydrochloride salt] gave a 50% inhibitory concentration (IC50) of 13 µM. The MIC in test [2] is greater than 512 µg/mL; in test [3] it was 16 µg/mL.

In the case of `Cc1cccc(C(CC(=O)NC2CCNCC2)c2cn(CC3CCOCC3)c3ccccc23)c1.Cl` (stereo not drawn) [Compound 284, N-(piperidin-4-yl)-3-(1-((tetrahydro-2H-pyran-4-yl)methyl)-1H-indol-3-yl)-3-(m-tolyl)propanamide hydrochloride salt], in test [1], the IC50 came to 316 µM. Moreover, the minimal inhibitory concentration (MIC) in test [2] and in test [3] was greater than 512 µg/mL throughout.

Molecule `Cl.N[C@H]1CC[C@H](NC(=O)CCc2cn(CC3CCCCC3)c3ccc(-c4cccc(OC(F)(F)F)c4)cc23)CC1` [Compound 213, N-((1R,4R)-4-aminocyclohexyl)-3-(1-(cyclohexylmethyl)-5-(3-(trifluoromethoxy)phenyl)-1H-indol-3-yl) propanamide hydrochloride salt] yielded an IC50 in test [1] of 3 µM. Besides, the MIC was found to be 296 µg/mL in test [2] and 18 µg/mL in test [3].

For `Cc1cccc(-c2ccc3c(c2)c(CC(=O)NC2CCC(N)CC2)cn3C(=O)C2CCCCC2)c1.Cl` [Compound 259, N-((1S,4S)-4-aminocyclohexyl)-2-(1-(cyclohexanecarbonyl)-5-(m-tolyl)-1H-indol-3-yl)acetamide hydrochloride salt], the IC50 in test [1] turned out to be 20 µM. Besides, the MIC in test [2] is greater than 512 µg/mL; in test [3], 267 µg/mL.

Molecule `Cc1cccc(C(CC(=O)N[C@H]2CC[C@H](N)CC2)c2cn(Cc3ccccc3)c3ccccc23)c1.Cl` (stereo partly drawn) [Compound 64, N-((1R,4R)-4-aminocyclohexyl)-3-(1-benzyl-1H-indol-3-yl)-3-(m-tolyl)propanamide salt] returned an IC50 in test [1] of 58 µM. Further, the values for the minimal inhibitory concentration (MIC) in test [2] and in test [3] were greater than 512 µg/mL and 64 µg/mL, respectively.

For the molecule `Cl.N[C@H]1CC[C@H](NC(=O)CC(c2cccnc2)c2cn(CC3CCCCC3)c3ccccc23)CC1` (stereo partly drawn) [Compound 138, N-((1R,4R)-4-aminocyclohexyl)-3-(1-(cyclohexylmethyl)-1H-indol-3-yl)-3-(pyridin-3-yl)propanamide hydrochloride salt], the IC50 in test [1] amounted to 95 µM. Also, the MIC in test [2] was 128 µg/mL; in test [3], 64 µg/mL.

With `FC1(F)CCC(Cn2cc(CCCNC3CCNCC3)c3cc(Br)ccc32)CC1` [Compound 295, N-(3-(5-bromo-1-((4,4-difluorocyclohexyl)methyl)-1H-indol-3-yl)propyl)piperidin-4-amine hydrochloride salt], in test [1], the IC50 stood at 50 µM. Also, the minimal inhibitory concentration (MIC) worked out at 17 µg/mL in test [2] and 9 µg/mL in test [3].
